According to patent US8318785B2, “Pharmaceutical compounds” (Orion Corporation, priority 2005, dated 2012):
Each block holds one molecule with its values, some of them ahead of it.

How the values were obtained:
[1] = target: T1, recombinant human soluble form of COMT (hS-COMT) (Homo sapiens, UniProt P21964); assay: Determination of COMT inhibiting activity in vitro; assay type: biochemical; details: tight binding inhibition constant, 25 μM SAM, substrate esculetin 10 μM, pH 7.4, 37° C.
T1 sequence (P21964 1-221 isoform P21964-2): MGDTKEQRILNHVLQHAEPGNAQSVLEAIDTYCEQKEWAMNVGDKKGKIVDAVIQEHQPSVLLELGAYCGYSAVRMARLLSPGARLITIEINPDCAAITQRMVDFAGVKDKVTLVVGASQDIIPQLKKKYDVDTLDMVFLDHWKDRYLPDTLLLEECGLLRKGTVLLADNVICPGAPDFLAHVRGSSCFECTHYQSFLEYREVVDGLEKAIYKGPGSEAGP

[2] = Determination of metabolic stability in vitro (glucuronidation); assay type: in vitro ADME; details: entacapone = 1.00; human liver microsomes 0.4 mg/ml, UDPGA 5 mM, test substance 100 μM, 60 min at 37° C.; glucuronide HPLC area relative to entacapone
[3] = tested on: isolated rat liver mitochondria; assay: Determination of uncoupling of oxidative phosphorylation in vitro; details: threshold value of uncoupling (sample/Control slope ratio exceeding 2); oxygen consumption of rat liver mitochondria; tested 1-50 μM

Ki [1]: 1.5 nM
SMILES: CCOC(=O)c1sc2c([N+](=O)[O-])c(O)c(O)cc2c1Cl [Compound of example 5, 3-Chloro-5,6-dihydroxy-7-nitro-benzo[b]thiophene-2-carboxylic acid ethyl ester]

Ki [1]: 1.5 nM
SMILES: O=[N+]([O-])c1c(O)c(O)cc2c(Cl)csc12 [Compound of example 7, 3-Chloro-5,6-dihydroxy-7-nitro-benzo[b]thiophene]

Ki [1]: 0.6 nM
SMILES: O=C(c1sc2c([N+](=O)[O-])c(O)c(O)cc2c1Cl)N1CCOCC1 [Compound of example 8, (3-Chloro-5,6-dihydroxy-7-nitro-benzo[b]thiophen-2-yl)-morpholin-4-yl-methanone]

Ki [1]: 0.2 nM
SMILES: O=C(O)c1ccc(NC(=O)c2sc3c([N+](=O)[O-])c(O)c(O)cc3c2Cl)cc1 [Compound of example 13, 4-[(3-Chloro-5,6-dihydroxy-7-nitro-benzo[b]thiophene-2-carbonyl)-amino]-benzoic acid]

Further lines, the molecule ahead of its results:

SMILES: O=C(O)c1cccc(NC(=O)c2sc3c([N+](=O)[O-])c(O)c(O)cc3c2Cl)c1 [Compound of example 12, 3-[(3-Chloro-5,6-dihydroxy-7-nitro-benzo[b]thiophene-2-carbonyl)-amino]-benzoic acid]
Ki [1]: 0.6 nM
Relative glucuronidation [2]: 0.03

SMILES: O=C(c1cc2cc(O)c(O)c([N+](=O)[O-])c2s1)N1CCOCC1 [Compound of example 16, (5,6-Dihydroxy-7-nitro-benzo[b]thiophen-2-yl)-morpholin-4-yl-methanone]
Ki [1]: 0.9 nM
Relative glucuronidation [2]: <0.01

SMILES: O=C1OCc2c1cc(O)c(O)c2[N+](=O)[O-] [Compound of example 23, 5,6-Dihydroxy-4-nitro-3H-isobenzofuran-1-one]
Ki [1]: 2 nM
Relative glucuronidation [2]: 0.26

SMILES: O=[N+]([O-])c1ccc(O)c([N+](=O)[O-])c1 [DNP, dinitrophenol]
Uncoupling [3]: 10 µM
